Measured values reported in patent US5834301A, “Method of removing color from kraft wood pulps” (priority 1995, dated 1998).

Key:
Format in all cases: biochemical
Details in all cases: 1 mM reagent
[1] = system: Streptomyces sp. TUB B-12-2 endoxylanase xyl 1b
Description: (§1) Xylanase activity was routinely determined by measuring the release of reducing sugars from either 1% (w/v) alkali-soluble or water soluble oat-spelt xylan, using the Somogyi's modification Nelson method (NS) as previously described. Crude or purified enzyme preparations were diluted appropriately to obtain maximal activity consistent with a linear response. For comparative purposes, xylanase activities were measured against 1% (w/v) water soluble and water insoluble xylan from either oat-spelts or birch (Sigma). The dinitrosalicylic acid (DNS) method of Miller, Anal. Chem., 31:426-429 (1959) was used to assay xylanase activity during initial screening. Carboxymethylcellulase activity (CMCase) was assayed by replacing 1% xylan with 1% of low viscosity carboxymethyl cellulose (Sigma). Acetylated glucuronoxylan was recovered from birch wood flakes by hot water extraction. β-Xylosidase was assayed as described by Bachmann and McCarthy, J. Gen. Microbiol., 135:293-299 (1989) using 5 mM p-nitrophenyl-β-D-xylopyranoside in 50 mM potassium phosphate buffer at pH 7.0. The values of the Michaelis constant (Km) and the maximum velocity (Vmax) were determined from a Lineweaver-Burke plot of assayed activities over a range of substrate concentrations. Suitably diluted xylanases were incubated with alkali-soluble birch wood or oat spelt xylan at concentrations ranging from 0.5 to 10 mg/ml under the assay conditions given.
(§2) f. Effectors. We investigated the effects of 1 mM metal ions and other agents on the activities of purified endoxylanases (Table 14).

[2] = system: Streptomyces sp. TUB B-12-2 endoxylanase xyl 1a
Description: as §1, §2

[3] = system: Streptomyces sp. TUB B-12-2 endoxylanase xyl 2
Description: as §1, §2

[4] = system: Streptomyces sp. TUB B-12-2 endoxylanase xyl 3
Description: as §1, §2

[5] = system: Streptomyces sp. TUB B-12-2 endoxylanase xyl 4
Description: as §1, §2

Compound | Effect on activity of xyl 1b (in words) [1] | Relative activity (%) xyl 1b [1] [%] | Effect on activity of xyl 1a (in words) [2] | Relative activity (%) xyl 1a [2] [%] | Effect on activity of xyl 2 (in words) [3] | Relative activity (%) xyl 2 [3] [%] | Effect on activity of xyl 3 (in words) [4] | Relative activity (%) xyl 3 [4] [%] | Effect on activity of xyl 4 (in words) [5] | Relative activity (%) xyl 4 [5] [%]
O=S(=O)(F)Cc1ccccc1 [PMSF, Phenylmethylsulfonylfluoride] | did not influence the activity | 87 | did not influence the activity | 95 | did not influence the activity | 100 | did not influence the activity | 100 | did not influence the activity | 100
N-Bromosuccinamide | totally inactivated | 0 | totally inactivated | 0 | totally inactivated | 0 | totally inactivated | 0 | totally inactivated | 0
O=C(O)c1cc[c]([Hg][OH])cc1 [PHMB, p-Hydroxymercury-benzoate] | completely inactivated | 0 | – | 100 | – | 90 | – | 96 | – | 95
